Laboratory results as given in patent US20250230154A1, “COMPOUND HAVING SHP2 PROTEIN DEGRADING ACTIVITY, AND MEDICAL USES THEREOF” (UBIX THERAPEUTICS, INC., priority 2021, published 2025).

Biological target: T1, SHP2 protein (Homo sapiens, UniProt Q06124)
T1 sequence (Q06124 1-593): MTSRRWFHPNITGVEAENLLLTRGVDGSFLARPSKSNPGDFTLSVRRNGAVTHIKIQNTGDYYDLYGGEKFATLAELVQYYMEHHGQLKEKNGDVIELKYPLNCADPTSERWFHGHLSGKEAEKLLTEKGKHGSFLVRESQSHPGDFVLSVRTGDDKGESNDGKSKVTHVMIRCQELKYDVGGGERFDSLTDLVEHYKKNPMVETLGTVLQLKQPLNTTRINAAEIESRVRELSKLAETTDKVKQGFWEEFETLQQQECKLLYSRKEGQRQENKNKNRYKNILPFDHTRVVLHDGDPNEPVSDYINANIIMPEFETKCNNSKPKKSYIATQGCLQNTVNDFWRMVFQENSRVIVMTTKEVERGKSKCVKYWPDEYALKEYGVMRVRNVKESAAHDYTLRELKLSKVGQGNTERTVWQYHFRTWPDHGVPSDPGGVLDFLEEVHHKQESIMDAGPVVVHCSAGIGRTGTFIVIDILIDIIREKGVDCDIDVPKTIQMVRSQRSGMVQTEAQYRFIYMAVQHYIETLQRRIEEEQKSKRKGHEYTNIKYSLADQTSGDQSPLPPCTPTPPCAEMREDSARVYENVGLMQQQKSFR
Test: Measurement of SHP2 protein degradation in MV-4-11 cells (western blotting)
Type: cell-based
Design: endogenous in cells; host or cells: MV-4-11
Details: MV-4-11 cells, 24 hours
Method: Experimental Example 2: Measurement of SHP2 Protein Degradation in MV-4-11 Cells
MV-4-11 cells were treated with the synthesized Example compound, and the amount of SHP2 protein present in the cells was measured using western blotting detection. The protocol of the experiment conducted using MV-4-11 cells was as follows:
[Culture] MV-4-11 cells resuspended in IMDM MEDIUM (Hyclone, SH30228.01) containing 5% FBS (Hyclone, SV30207.02) and 1% Penicillin-streptomycin (Welgene, LS 202-02) were seeded at a density of 1×10^6/mL/well in a 12-well plate in an amount of 1 ml each.
[Compound treatment] The 12-well plate was treated as follows: Cells were treated with compounds at a final concentration of […] made by serial dilution of 10 mM stock with DMSO in 1/100 increments […]. After 24 hours, cells were harvested. For the negative control group, DMSO diluted 1/100 to the media (3 mL DMSO+297 mL media) was added.
[Harvest] Each well was collected in a 1.5 mL microtube by pipetting with a 1 mL pipette and centrifuged (500 g, 5 min, 4° C.). The supernatant was removed. It was washed with PBS, and then centrifuged again (500 g, 5 min, 4° C.). Thereafter, the supernatant was removed to prepare a pellet.
[Cell Lysis and Sample preparation] Lysis buffer was prepared as follows: […] of RIPA buffer (Biosesang, RC2038-050-00)+0.5 mM PMSF (SIGMA, P7626)+1× Protease/Phosphatase Inhibitor (Cell signaling, 5872S) per well was added and placed on ice for 30 minutes (vortexing at 0 and 30 minutes, respectively). After sonication process (10 seconds pulse, 30 seconds rest, 5 cycles, 70% amplification), centrifugation (15000 g, 15 min, 4° C.) was performed, and then only the supernatant was taken and transferred to a microtube. The sample was diluted ¼ with RIPA buffer in a 96-well plate, and mixed with A:B=50:1 of the BCA Protein Assay Kit (iNtRON, 21071). […] each of the mixture was left at 37° C. for 30 minutes, and cooled for 10 minutes. Then, absorbance was measured at 562 nm with the SYNERGY H1 microplate reader from BioTek. After making a sample by quantifying the protein with the measured value, boiling was performed at 70° C. for 10 minutes. At this time, the sample buffer used was a mixture of NuPAGE or Bolt 4× sample buffer (Invitrogen) and each 10× sample reducing agent according to the gel to be used, and RIPA buffer was used for protein dilution.
[Western blotting detection method] The same amount of sample was loaded on NuPAGE or Bolt Bis-tris 4-12% gradient gel and run (200 V, 35 minutes). It was transferred to 0.2 mm NC membrane with Trans-blot Turbo (BIO-RAD) (1.3 A constant, 25 V limit, 15 minutes). Blocking was performed at room temperature for 1 hour with Skim milk or Intercept Blocking Buffer (LI-COR, 927-60001):0.1% TBST=1:1. Anti-SHPTP2 Mouse (1:500 in 2% BSA/0.2% TBST, size: 70 kDa, Santacruz sc-7384) was incubated overnight at 4° C., and Anti-GAPDH Rabbit (1:2,000 in 2% BSA/0.2% TBST, size: 37 kDa, CST #2118) was incubated at room temperature for 1 hour 30 minutes or 3 hours. It was washed 3 times for 5 minutes each with 0.2% TBST washing buffer. Secondary antibody Anti-Rabbit IgG (1:5,000 in 2% BSA/0.2% TBST, CST), IRDye® 680RD Goat anti-Rabbit IgG Secondary Antibody (1:10,000 in 2% BSA/0.2% TBST, LI-COR 926-68071) were added and incubated for 45 minutes on a rocker at room temperature. It was washed 5 times for 5 minutes each with 0.2% TBST washing buffer and detected with LI-COR's Odyssey. At this time, SHPTP2 was detected using SuperSignal West Pico PLUS Chemiluminescent Substrate, and house-keeping genes were also detected.
In the results of Table 4 below, Compounds 1-7, 13-19, and 21-26 are results in KYSE-520 cells, and the others are results in MV-4-11 cells.

Row | SMILES | SHP2 degradation (%) 10 nM [%] | SHP2 degradation (%) 100 nM [%] | SHP2 degradation (%) 1000 nM [%]
1 | CC(=O)N[C@H](C(=O)N1C[C@H](O)C[C@H]1C(=O)NCc1ccc(-c2scnc2C)cc1OCCC1CCN(C(=O)CC(=O)Nc2cccc(Sc3cnc(N4CCC(C)(CN)CC4)cn3)c2Cl)CC1)C(C)(C)C [Example 38, (2S,4R)-1-((S)-2-acetamido-3,3-dimethylbutanoyl)-N-(2-(2-(1-(3-((3-((5-(4-(aminomethyl)-4-methylpiperidin-1-yl)pyrazin-2-yl)thio)-2-chlorophenyl)amino)-3-oxopropanoyl)piperidin-4-yl)ethoxy)-4-(4-methylthiazol-5-yl)benzyl)-4-hydroxypyrrolidine-2-carboxamide] | 86 | 93 | 93.5
2 | CC(=O)N[C@H](C(=O)N1C[C@H](O)C[C@H]1C(=O)NCc1ccc(-c2scnc2C)cc1OCCCC1CCN(C(=O)CC(=O)Nc2cccc(Sc3cnc(N4CCC(C)(CN)CC4)cn3)c2Cl)CC1)C(C)(C)C [Example 43, (2S,4R)-1-((S)-2-acetamido-3,3-dimethylbutanoyl)-N-(2-(3-(1-(3-((3-((5-(4-(aminomethyl)-4-methylpiperidin-1-yl)pyrazin-2-yl)thio)-2-chlorophenyl)amino)-3-oxopropanoyl)piperidin-4-yl)propoxy)-4-(4-methylthiazol-5-yl)benzyl)-4-hydroxypyrrolidine-2-carboxamide] | 80.0 | 96.5 | 
3 | Cc1ncsc1-c1ccc(CNC(=O)[C@@H]2C[C@@H](O)CN2C(=O)[C@@H](NC(=O)C2(F)CC2)C(C)(C)C)c(OCC2CCN(C(=O)CCC(=O)Nc3cccc(Sc4cnc(N5CCC(C)(CN)CC5)cn4)c3Cl)CC2)c1 [Example 44, (2S,4R)—N-(2-((1-(4-((3-((5-(4-(aminomethyl)-4-methylpiperidin-1-yl)pyrazin-2-yl)thio)-2-chlorophenyl)amino)-4-oxobutanoyl)piperidin-4-yl)methoxy)-4-(4-methylthiazol-5-yl)benzyl)-1-((S)-2-(1-fluorocyclopropane-1-carboxamido)-3,3-dimethylbutanoyl)-4-hydroxypyrrolidine-2-carboxamide] | 71.5 | 95 | 95.5
4 | Cc1ncsc1-c1ccc(CNC(=O)[C@@H]2C[C@@H](O)CN2C(=O)[C@@H](NC(=O)C2(F)CC2)C(C)(C)C)c(OCCC2CCN(C(=O)CCC(=O)Nc3cccc(Sc4cnc(N5CCC(C)(CN)CC5)cn4)c3Cl)CC2)c1 [Example 45, (2S,4R)—N-(2-(2-(1-(4-((3-((5-(4-(aminomethyl)-4-methylpiperidin-1-yl)pyrazin-2-yl)thio)-2-chlorophenyl)amino)-4-oxobutanoyl)piperidin-4-yl)ethoxy)-4-(4-methylthiazol-5-yl)benzyl)-1-((S)-2-(1-fluorocyclopropane-1-carboxamido)-3,3-dimethylbutanoyl)-4-hydroxypyrrolidine-2-carboxamide] | 68.0 | 91.0 | 93.0

Other lines, results leading:

Row | SHP2 degradation (%) 10 nM [%] | SHP2 degradation (%) 100 nM [%] | SHP2 degradation (%) 1000 nM [%] | SMILES
5 | 80.5 | 89.5 | 90.5 | Cc1ncsc1-c1ccc(CNC(=O)[C@@H]2C[C@@H](O)CN2C(=O)[C@@H](NC(=O)C2(F)CC2)C(C)(C)C)c(OCCC2CCN(C(=O)CC(=O)Nc3cccc(Sc4ncc(N5CCC(C)(CN)CC5)nc4N)c3Cl)CC2)c1 [Example 37, (2S,4R)—N-(2-(2-(1-(3-((3-((3-amino-5-(4-(aminomethyl)-4-methylpiperidin-1-yl)pyrazin-2-yl)thio)-2-chlorophenyl)amino)-3-oxopropanoyl)piperidin-4-yl)ethoxy)-4-(4-methylthiazol-5-yl)benzyl)-1-((S)-2-(1-fluorocyclopropane-1-carboxamido)-3,3-dimethylbutanoyl)-4-hydroxypyrrolidine-2-carboxamide]
6 | 67.0 | 95.0 |  | Cc1ncsc1-c1ccc(CNC(=O)[C@@H]2C[C@@H](O)CN2C(=O)[C@@H](NC(=O)C2(F)CC2)C(C)(C)C)c(OCCCC2CCN(C(=O)CC(=O)Nc3cccc(Sc4ncc(N5CCC(C)(N)CC5)nc4N)c3Cl)CC2)c1 [Example 40, (2S,4R)—N-(2-(3-(1-(3-((3-((3-amino-5-(4-amino-4-methylpiperidin-1-yl)pyrazin-2-yl)thio)-2-chlorophenyl)amino)-3-oxopropanoyl)piperidin-4-yl)propoxy)-4-(4-methylthiazol-5-yl)benzyl)-1-((S)-2-(1-fluorocyclopropane-1-carboxamido)-3,3-dimethylbutanoyl)-4-hydroxypyrrolidine-2-carboxamide]
7 | 77.0 | 92.5 | 91.5 | Cc1ncsc1-c1ccc(CNC(=O)[C@@H]2C[C@@H](O)CN2C(=O)[C@@H](NC(=O)C2(F)CC2)C(C)(C)C)c(OCCCC2CCN(C(=O)CC(=O)Nc3cccc(Sc4cnc(N5CCC(C)(CN)CC5)cn4)c3Cl)CC2)c1 [Example 41, (2S,4R)—N-(2-(3-(1-(3-((3-((5-(4-(aminomethyl)-4-methylpiperidin-1-yl)pyrazin-2-yl)thio)-2-chlorophenyl)amino)-3-oxopropanoyl)piperidin-4-yl)propoxy)-4-(4-methylthiazol-5-yl)benzyl)-1-((S)-2-(1-fluorocyclopropane-1-carboxamido)-3,3-dimethylbutanoyl)-4-hydroxypyrrolidine-2-carboxamide]
8 | 73.5 | 95.0 |  | Cc1ncsc1-c1ccc(CNC(=O)[C@@H]2C[C@@H](O)CN2C(=O)[C@@H](NC(=O)C2(F)CC2)C(C)(C)C)c(OCCCC2CCN(C(=O)CC(=O)Nc3cccc(Sc4ncc(N5CCC(C)(CN)CC5)nc4N)c3Cl)CC2)c1 [Example 42, (2S,4R)—N-(2-(3-(1-(3-((3-((3-amino-5-(4-(aminomethyl)-4-methylpiperidin-1-yl)pyrazin-2-yl)thio)-2-chlorophenyl)amino)-3-oxopropanoyl)piperidin-4-yl)propoxy)-4-(4-methylthiazol-5-yl)benzyl)-1-((S)-2-(1-fluorocyclopropane-1-carboxamido)-3,3-dimethylbutanoyl)-4-hydroxypyrrolidine-2-carboxamide]
